Assay results from patent publication US20240132457A1, “3-(2-(BENZO[D]THIAZOL-2-YL)-2-(PHENYLSUFONAMIDO)ETHYL)BENZIMIDAMIDE DERIVATIVES AND RELATED COMPOUNDS AS TMPRSS2 INHIBITORS FOR THE TREATMENT OF VIRAL INFECTIONS” (INTEGERBIO, INC., priority 2020, published 2024).

What was measured:
Format in all cases: biochemical
Details in all cases: 10-dose, 3-fold from 10 μM
[1] = molecular target: T1, Kallikrein 12 (Homo sapiens, UniProt Q9UKR0); assay: Non-TMPRSS2 protease panel: Kallikrein 12
T1 sequence (Q9UKR0 18-248): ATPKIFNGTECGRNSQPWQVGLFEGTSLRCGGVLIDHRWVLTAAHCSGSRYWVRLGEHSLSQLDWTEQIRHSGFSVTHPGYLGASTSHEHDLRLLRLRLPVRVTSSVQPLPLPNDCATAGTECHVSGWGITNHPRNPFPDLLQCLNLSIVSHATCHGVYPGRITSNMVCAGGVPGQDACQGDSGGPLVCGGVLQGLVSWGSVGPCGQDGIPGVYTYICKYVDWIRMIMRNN
Description: (§1) Biochemical activity of compound 1 (racemic mixture, batch 1), compound 3 (racemic), compound 11, and compound 2 (enantiomer 1, batch 1) in proteases indicated in Table 21, Table 22, Table 23, and Table 24, respectively, were measured by testing the compounds in a 10-dose IC50 with a 3-fold series dilution starting at 10 μM against the proteases. The protease activities were monitored as a time-course measurement of the increase in fluorescence signal from fluorescently-labeled peptide substrate, and initial linear portion of slope (signal/min) was analyzed. The curve fits were performed when the activities at the highest concentration of compounds were less than 65%.

[2] = molecular target: T2, Matriptase 2 (Homo sapiens, UniProt Q8IU80); assay: Non-TMPRSS2 protease panel: Matriptase 2
T2 sequence (Q8IU80 1-811): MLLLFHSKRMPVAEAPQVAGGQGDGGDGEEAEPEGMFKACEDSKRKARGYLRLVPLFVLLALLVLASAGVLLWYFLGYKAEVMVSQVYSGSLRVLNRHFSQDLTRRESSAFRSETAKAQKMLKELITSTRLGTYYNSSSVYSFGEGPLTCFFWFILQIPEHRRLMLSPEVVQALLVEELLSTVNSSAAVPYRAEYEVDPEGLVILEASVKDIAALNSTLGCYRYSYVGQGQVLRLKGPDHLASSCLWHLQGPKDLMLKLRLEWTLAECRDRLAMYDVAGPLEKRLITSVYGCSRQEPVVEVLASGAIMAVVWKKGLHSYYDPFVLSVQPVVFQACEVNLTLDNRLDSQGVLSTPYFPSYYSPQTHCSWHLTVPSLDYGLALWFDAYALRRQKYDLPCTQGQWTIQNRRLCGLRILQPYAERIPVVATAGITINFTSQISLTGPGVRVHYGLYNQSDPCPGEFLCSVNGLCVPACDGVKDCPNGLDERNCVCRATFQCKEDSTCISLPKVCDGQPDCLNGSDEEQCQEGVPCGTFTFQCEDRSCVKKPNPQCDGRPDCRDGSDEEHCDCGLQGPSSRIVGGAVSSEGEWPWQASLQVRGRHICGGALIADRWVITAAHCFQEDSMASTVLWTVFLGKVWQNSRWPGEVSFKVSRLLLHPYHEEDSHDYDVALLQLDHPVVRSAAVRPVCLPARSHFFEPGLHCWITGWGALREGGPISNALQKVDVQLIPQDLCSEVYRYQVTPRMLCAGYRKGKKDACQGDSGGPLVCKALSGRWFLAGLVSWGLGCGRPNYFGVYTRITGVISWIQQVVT
Description: as §1

[3] = molecular target: ACE2 (Homo sapiens, UniProt Q9BYF1); assay: Non-TMPRSS2 protease panel: ACE2
Description: as §1

[4] = molecular target: T3, Kallikrein 13 (Homo sapiens, UniProt Q9UKR3); assay: Non-TMPRSS2 protease panel: Kallikrein 13
T3 sequence (Q9UKR3 17-277): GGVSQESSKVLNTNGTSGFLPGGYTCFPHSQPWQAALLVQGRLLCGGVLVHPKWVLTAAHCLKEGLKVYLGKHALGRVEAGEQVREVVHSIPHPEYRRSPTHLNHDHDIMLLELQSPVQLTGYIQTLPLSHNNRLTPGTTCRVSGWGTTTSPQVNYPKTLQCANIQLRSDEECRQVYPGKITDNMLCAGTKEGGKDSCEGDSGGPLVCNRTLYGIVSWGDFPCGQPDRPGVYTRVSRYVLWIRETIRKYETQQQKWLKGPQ
Description: as §1

[5] = molecular target: Kallikrein 7 (Homo sapiens, UniProt P49862); assay: Non-TMPRSS2 protease panel: Kallikrein 7
Description: as §1

[6] = molecular target: T4, PLpro (Severe acute respiratory syndrome coronavirus 2, UniProt P0DTD1); assay: Non-TMPRSS2 protease panel: PLpro
T4 construct: Plasma Kallikrein, Plasmin, Plpro, TACE
Description: as §1

Kallikrein 7, sequence (P49862 30-253): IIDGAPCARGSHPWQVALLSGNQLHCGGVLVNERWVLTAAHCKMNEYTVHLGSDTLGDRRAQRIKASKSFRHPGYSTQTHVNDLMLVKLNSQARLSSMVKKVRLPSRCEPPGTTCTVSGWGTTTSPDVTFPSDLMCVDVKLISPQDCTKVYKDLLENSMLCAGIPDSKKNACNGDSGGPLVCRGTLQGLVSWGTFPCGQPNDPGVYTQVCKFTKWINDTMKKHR
ACE2, sequence (Q9BYF1 18-805): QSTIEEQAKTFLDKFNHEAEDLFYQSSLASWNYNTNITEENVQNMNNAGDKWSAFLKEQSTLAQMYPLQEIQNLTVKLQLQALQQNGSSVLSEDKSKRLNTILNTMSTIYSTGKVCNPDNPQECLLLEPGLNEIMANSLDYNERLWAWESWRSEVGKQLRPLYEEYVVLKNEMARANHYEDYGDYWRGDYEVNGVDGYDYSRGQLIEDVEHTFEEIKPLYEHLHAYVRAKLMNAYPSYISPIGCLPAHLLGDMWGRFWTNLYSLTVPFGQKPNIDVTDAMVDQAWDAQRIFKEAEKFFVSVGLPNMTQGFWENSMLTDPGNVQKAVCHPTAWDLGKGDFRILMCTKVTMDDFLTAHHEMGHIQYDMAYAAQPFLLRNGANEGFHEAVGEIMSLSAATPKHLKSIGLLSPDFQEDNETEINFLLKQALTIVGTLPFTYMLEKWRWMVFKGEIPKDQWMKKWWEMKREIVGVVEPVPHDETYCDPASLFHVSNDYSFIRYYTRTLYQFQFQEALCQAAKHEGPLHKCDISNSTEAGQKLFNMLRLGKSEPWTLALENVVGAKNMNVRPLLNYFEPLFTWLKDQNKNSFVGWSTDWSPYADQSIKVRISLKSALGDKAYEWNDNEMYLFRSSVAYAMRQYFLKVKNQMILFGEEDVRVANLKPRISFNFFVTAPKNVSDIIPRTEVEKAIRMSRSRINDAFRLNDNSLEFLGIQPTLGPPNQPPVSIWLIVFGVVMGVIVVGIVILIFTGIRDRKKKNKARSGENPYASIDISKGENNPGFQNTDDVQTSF

Structure (SMILES)	IC50 [1]	IC50 [2]	IC50 [3]	IC50 [4]	IC50 [5]	IC50 [6]
N=C(N)c1cccc(CC(NS(=O)(=O)c2ccccc2)c2nc3ccccc3s2)c1 (racemic) [1 (racemic mixture, batch 1), 3-[2-Benzenesulfonamido-2-(1,3-benzothiazol-2-yl)ethyl]benzene-1-carboximidamide]	> 10 µM	> 10 µM	> 10 µM	> 10 µM	> 10 µM	> 10 µM
N=C(N)c1cccc(CC(NS(=O)(=O)c2cccc(-c3ccc(Cl)cc3Cl)c2)c2nc3ccccc3s2)c1 (racemic) [3 (racemic), 3-[2-(1,3-Benzothiazol-2-yl)-2-{2′,4′-dichloro-[1,1′-biphenyl]-3-sulfonamido}ethyl]benzene-1-carboximidamide]	> 10 µM	> 10 µM	> 10 µM	> 10 µM	> 10 µM	> 10 µM
N=C(N)c1cccc(C[C@H](NS(=O)(=O)c2ccccc2)c2nnco2)c1 (single isomer, unassigned) [Compound 2 (enantiomer 1, batch 1), 3-[2-Benzenesulfonamido-2-(1,3,4-oxadiazol-2-yl)ethyl]benzene-1-carboximidamide]	> 10 µM	> 10 µM	> 10 µM	> 10 µM	> 10 µM	> 10 µM
COc1ccc2nc(C(Cc3cccc(C(=N)N)c3)NS(=O)(=O)c3ccccc3)sc2c1 (stereo not drawn) [Compound 11, 3-[2-Benzenesulfonamido-2-(6-methoxy-1,3-benzothiazol-2-yl)ethyl]benzene-1-carboximidamide]	> 10 µM	< 10 µM	> 10 µM	> 10 µM	> 10 µM	> 10 µM
